# From patent publication US20110009263A1, “SELECTED SALTS OF 3-(5,6-DIHYDRO-1,4,2-DIOXAZIN-3-YL)-N-[(4,6-DIMETHOXYPYRIMIDIN-2-YL)CARBAMOYL]PYRIDINE-2-SULFONAMIDE, METHOD FOR THE PRODUCTION THEREOF, AND USE THEREOF AS HERBICIDES AND PLANT GROWTH REGULATORS” (priority 2008, published 2011)
# Key:
# Assay type in all cases: in vivo
# [1] = test system: Ambrosia elatior; settings: for AMBEL (post-emergence herbicidal action score): 2-4 leaf stage, 5 g of a.i./ha, scored after four weeks, 0=no damage, 100=complete control
# Procedure: (§1) Seeds or rhizome pieces of monocotyledonous and dicotyledonous weeds were placed in sandy loam in plastic pots (Jiffy pots), covered with soil and cultivated in a greenhouse under good and defined growth conditions, i.e. at a day/night rhythm of 22° C./14° C. At the 2-4 leaf stage, the plants were then treated with an aqueous test solution of various compounds according to the invention at the stated dosage. After four weeks, the tests were scored according to the scheme below:
# (§2) 0=no damage; 100=complete control
# (§3) The control used was the Na^+ salt of 3-(5,6-dihydro-1,4,2-dioxazin-3-yl)-N-[(4,6-dimethoxypyrimidin-2-yl)carbamoyl]pyridine-2-sulfonamide which is already known from U.S. Pat. No. 5,476,936.
# [2] = test system: Eleusine indica; settings: for ELEIN (post-emergence herbicidal action score): 2-4 leaf stage, 5 g of a.i./ha, scored after four weeks, 0=no damage, 100=complete control
# Procedure: as §1, §2, §3
# [3] = test system: Matricaria inodora; settings: pre-emergence, application rate of 0.08 kg or less of active substance per hectare, 3 to 4 weeks
# Excerpt: (§4) Seeds or rhizome pieces of mono- and dicotyledonous weeds were placed in sandy loam in cardboard pots and covered with soil. The compounds according to the invention, formulated in the form of wettable powders or emulsion concentrates, were then applied to the surface of the covering soil in the form of aqueous suspensions or emulsions at an application rate of 100 to 800 l of water/ha (converted), at various dosages.
# (§5) After the treatment, the pots were placed in a greenhouse and kept under good growth conditions for the weeds. The visual scoring of the damage to the plants or the emergence damage was carried out after the emergence of the test plants after a test period of 3 to 4 weeks, by comparison with untreated controls. As shown by the results, the compounds according to the invention have good herbicidal pre-emergence activity against a broad spectrum of weed grasses and broad-leaved weeds.
# [4] = test system: Stellaria media; settings: pre-emergence, application rate of 0.08 kg or less of active substance per hectare, 3 to 4 weeks
# Excerpt: as §4, §5
# [5] = test system: Papaver rhoeas; settings: pre-emergence, application rate of 0.08 kg or less of active substance per hectare, 3 to 4 weeks
# Excerpt: as §4, §5
# [6] = test system: Viola tricolor; settings: pre-emergence, application rate of 0.08 kg or less of active substance per hectare, 3 to 4 weeks
# Excerpt: as §4, §5
compound,measurement,setting,value
"COc1cc(OC)nc(NC(=O)[N-]S(=O)(=O)c2ncccc2C2=NOCCO2)n1.[K+] [Compound I-2, Potassium {[3-(5,6-dihydro-1,4,2-dioxazin-3-yl)pyridin-2-yl]sulfonyl}[(4,6-dimethoxypyrimidin-2-yl)carbamoyl]azanide]",AMBEL (post-emergence herbicidal action score),[1],80
same,ELEIN (post-emergence herbicidal action score),[2],80
same,herbicidal activity against Matricaria inodora,[3],very good herbicidal activity
same,herbicidal activity against Stellaria media,[4],very good herbicidal activity
same,herbicidal activity against Papaver rhoeas,[5],very good herbicidal activity
same,herbicidal activity against Viola tricolor,[6],very good herbicidal activity
"COc1cc(OC)nc(NC(=O)[N-]S(=O)(=O)c2ncccc2C2=NOCCO2)n1.[Li+] [Compound I-1, Lithium {[3-(5,6-dihydro-1,4,2-dioxazin-3-yl)pyridin-2-yl]sulfonyl}[(4,6-dimethoxypyrimidin-2-yl)carbamoyl]azanide]",AMBEL (post-emergence herbicidal action score),[1],80
same,ELEIN (post-emergence herbicidal action score),[2],85
same,herbicidal activity against Matricaria inodora,[3],very good herbicidal activity
same,herbicidal activity against Stellaria media,[4],very good herbicidal activity
same,herbicidal activity against Papaver rhoeas,[5],very good herbicidal activity
same,herbicidal activity against Viola tricolor,[6],very good herbicidal activity
"2-(Acetyloxy)-N,N,N-trimethylethanaminium {[3-(5,6-dihydro-1,4,2-dioxazin-3-yl)pyridin-2-yl]sulfonyl}[(4,6-dimethoxypyrimidin-2-yl)carbamoyl]azanide [Compound I-40]",AMBEL (post-emergence herbicidal action score),[1],80
same,ELEIN (post-emergence herbicidal action score),[2],93
same,herbicidal activity against Matricaria inodora,[3],very good herbicidal activity
same,herbicidal activity against Stellaria media,[4],very good herbicidal activity
same,herbicidal activity against Papaver rhoeas,[5],very good herbicidal activity
same,herbicidal activity against Viola tricolor,[6],very good herbicidal activity
"2-hydroxy-N,N,N-trimethylethanaminium {[3-(5,6-dihydro-1,4,2-dioxazin-3-yl)pyridin-2-yl]sulfonyl}[(4,6-dimethoxypyrimidin-2-yl)carbamoyl]azanide [Compound I-38]",AMBEL (post-emergence herbicidal action score),[1],80
same,ELEIN (post-emergence herbicidal action score),[2],85
same,herbicidal activity against Matricaria inodora,[3],very good herbicidal activity
same,herbicidal activity against Stellaria media,[4],very good herbicidal activity
same,herbicidal activity against Papaver rhoeas,[5],very good herbicidal activity
same,herbicidal activity against Viola tricolor,[6],very good herbicidal activity
"2-Chloro-N,N,N-trimethylethanaminium {[3-(5,6-dihydro-1,4,2-dioxazin-3-yl)pyridin-2-yl]sulfonyl}[(4,6-dimethoxypyrimidin-2-yl)carbamoyl]azanide [Compound I-39]",AMBEL (post-emergence herbicidal action score),[1],80
same,ELEIN (post-emergence herbicidal action score),[2],93
same,herbicidal activity against Matricaria inodora,[3],very good herbicidal activity
same,herbicidal activity against Stellaria media,[4],very good herbicidal activity
same,herbicidal activity against Papaver rhoeas,[5],very good herbicidal activity
same,herbicidal activity against Viola tricolor,[6],very good herbicidal activity
"2-Hydroxy-N-(2-hydroxyethyl)ethanaminium {[3-(5,6-dihydro-1,4,2-dioxazin-3-yl)pyridin-2-yl]sulfonyl}[(4,6-dimethoxypyrimidin-2-yl)carbamoyl]azanide [Compound I-35]",AMBEL (post-emergence herbicidal action score),[1],85
same,ELEIN (post-emergence herbicidal action score),[2],80
same,herbicidal activity against Matricaria inodora,[3],very good herbicidal activity
same,herbicidal activity against Stellaria media,[4],very good herbicidal activity
same,herbicidal activity against Papaver rhoeas,[5],very good herbicidal activity
same,herbicidal activity against Viola tricolor,[6],very good herbicidal activity
"COc1cc(OC)nc(NC(=O)NS(=O)(=O)c2ncccc2C2=NOCCO2)n1.[Na] [control, Na^+ salt of 3-(5,6-dihydro-1,4,2-dioxazin-3-yl)-N-[(4,6-dimethoxypyrimidin-2-yl)carbamoyl]pyridine-2-sulfonamide, reference compound]",AMBEL (post-emergence herbicidal action score),[1],20
same,effectiveness against the dicotyledonous weed Ambrosia elatior (in words),[1]; post-emergence,controlled relatively weakly
same,ELEIN (post-emergence herbicidal action score),[2],75
same,controlling action against the monocotyledonous weed Eleusine indica (in words),[2]; post-emergence,good controlling action
"COc1cc(OC)nc(NC(=O)NS(=O)(=O)c2ncccc2C2=NOCCO2)n1.N [Compound I-5, Ammonium {[3-(5,6-dihydro-1,4,2-dioxazin-3-yl)pyridin-2-yl]sulfonyl}[(4,6-dimethoxypyrimidin-2-yl)carbamoyl]azanide]",AMBEL (post-emergence herbicidal action score),[1],75
same,control of Ambrosia elatior,[1]; post-emergence,≥ 75%
same,ELEIN (post-emergence herbicidal action score),[2],80
same,herbicidal activity against Matricaria inodora,[3],very good herbicidal activity
same,herbicidal activity against Stellaria media,[4],very good herbicidal activity
same,herbicidal activity against Papaver rhoeas,[5],very good herbicidal activity
same,herbicidal activity against Viola tricolor,[6],very good herbicidal activity
"CC(C)N.COc1cc(OC)nc(NC(=O)NS(=O)(=O)c2ncccc2C2=NOCCO2)n1 [Compound I-14, Propan-2-aminium {[3-(5,6-dihydro-1,4,2-dioxazin-3-yl)pyridin-2-yl]sulfonyl}[(4,6-dimethoxypyrimidin-2-yl)carbamoyl]azanide]",AMBEL (post-emergence herbicidal action score),[1],90
same,ELEIN (post-emergence herbicidal action score),[2],80
same,herbicidal activity against Matricaria inodora,[3],very good herbicidal activity
same,herbicidal activity against Stellaria media,[4],very good herbicidal activity
same,herbicidal activity against Papaver rhoeas,[5],very good herbicidal activity
same,herbicidal activity against Viola tricolor,[6],very good herbicidal activity
